PMC11845477, “Exploring the principles behind antibiotics with limited resistance” (Nature Communications, 2025)
Where a SMILES comes first, the peptide text is derived from it. Bridges are numbered along the chain shown (N, C = ends). [ ]: non-standard residue; d: D form. The star is where a group is joined. X1 = NC[C@@H](CC(=O)*)c1cccc(Cl)c1; Dab = NCC[C@H](N)C(=O)O; Dap = NC[C@H](N)C(=O)O

Test system: P. aeruginosa ATCC BAA-3107 (SEN) and P. aeruginosa LESB58 (MDR)
Experiment: Adaptive laboratory evolution (ALE), relative MIC of evolved lines
Assay type: cell-based, Pseudomonas aeruginosa
How it was run: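 Ten parallel populations per antibiotic–ancestor pair were evolved in MHB at 37 °C, starting near 50% growth-inhibiting drug. Every 72 h they were passaged into 0.5–2.5× increasing concentrations, keeping the highest-drug well with OD600 > 0.2.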

CC(C)C[C@@H]1NC(=O)[C@@H](Cc2ccccc2)NC(=O)[C@H](CCN)NC(=O)[C@@H](NC(=O)[C@H](CN)NC(=O)[C@@H](NC(=O)C[C@H](CN)c2cccc(Cl)c2)[C@@H](C)O)CCNC(=O)[C@H]([C@@H](C)O)NC(=O)[C@H](CCN)NC(=O)[C@H](CCN)NC1=O [SPR206] (X1-T[Dap][Dab][Dab][dF]L[Dab][Dab]T; lactam 3-C (inferred); N-terminus assumed)
Relative MIC (ALE, P. aeruginosa ATCC BAA 3107 (PA-SEN), evolved line 1): 16
Relative MIC (ALE, P. aeruginosa ATCC BAA 3107 (PA-SEN), evolved line 2): 32
Relative MIC (ALE, P. aeruginosa ATCC BAA 3107 (PA-SEN), evolved line 4): 16
Relative MIC (ALE, P. aeruginosa ATCC BAA 3107 (PA-SEN), evolved line 5): 16
Relative MIC (ALE, P. aeruginosa ATCC BAA 3107 (PA-SEN), evolved line 8): 8
Relative MIC (ALE, P. aeruginosa ATCC BAA 3107 (PA-SEN), evolved line 9): 32
Relative MIC (ALE, P. aeruginosa ATCC BAA 3107 (PA-SEN), evolved line 10): 2
Relative MIC (PA-MDR (LESB 58), evolved line 1, evolved vs ancestor): 16
Relative MIC (PA-MDR (LESB 58), evolved line 2, evolved vs ancestor): 16
Relative MIC (PA-MDR (LESB 58), evolved line 3, evolved vs ancestor): 16
Relative MIC (PA-MDR (LESB 58), evolved line 4, evolved vs ancestor): 8
Relative MIC (PA-MDR (LESB 58), evolved line 5, evolved vs ancestor): 16
Relative MIC (PA-MDR (LESB 58), evolved line 6, evolved vs ancestor): 32
Relative MIC (PA-MDR (LESB 58), evolved line 7, evolved vs ancestor): 16
Relative MIC (PA-MDR (LESB 58), evolved line 8, evolved vs ancestor): 4
Relative MIC (PA-MDR (LESB 58), evolved line 9, evolved vs ancestor): 16
Relative MIC (PA-MDR (LESB 58), evolved line 10, evolved vs ancestor): 32
MIC of evolved line (PA-MDR (LESB 58), evolved line 4): 32 µg/mL
MIC of evolved line (PA-MDR (LESB 58), evolved line 5): 64 µg/mL
MIC of evolved line (PA-MDR (LESB 58), evolved line 6): 128 µg/mL
MIC of evolved line (PA-MDR (LESB 58), evolved line 7): 64 µg/mL
MIC of evolved line (PA-MDR (LESB 58), evolved line 8): 16 µg/mL
MIC of evolved line (PA-MDR (LESB 58), evolved line 9): 64 µg/mL
MIC of evolved line (PA-MDR (LESB 58), evolved line 10): 128 µg/mL
Relative MIC (log10) (PA-MDR (Pseudomonas aeruginosa LESB 58), evolved line 1): 1.204 log10
Relative MIC (log10) (PA-MDR (Pseudomonas aeruginosa LESB 58), evolved line 6): 1.505 log10
MIC of evolved line (PA-MDR LESB 58, evolved line 1): 64 µg/mL
MIC of evolved line (PA-MDR LESB 58, evolved line 2): 64 µg/mL
MIC of evolved line (PA-MDR LESB 58, evolved line 3): 64 µg/mL
Relative MIC (log10) (PA-MDR, Pseudomonas aeruginosa LESB 58, evolved line 9): 1.204 log10
Relative MIC (log10) (PA-MDR, Pseudomonas aeruginosa LESB 58, evolved line 10): 1.505 log10
Relative MIC (log10) (PA-MDR, Pseudomonas aeruginosa LESB 58, evolved line 3): 1.204 log10
Relative MIC (PA-SEN (ATCC BAA 3107), evolved line 1, evolved vs ancestor): 16
Relative MIC (PA-SEN (ATCC BAA 3107), evolved line 2, evolved vs ancestor): 32
Relative MIC (PA-SEN (ATCC BAA 3107), evolved line 4, evolved vs ancestor): 16
Relative MIC (PA-SEN (ATCC BAA 3107), evolved line 5, evolved vs ancestor): 16
Relative MIC (PA-SEN (ATCC BAA 3107), evolved line 8, evolved vs ancestor): 8
Relative MIC (PA-SEN (ATCC BAA 3107), evolved line 9, evolved vs ancestor): 32
Relative MIC (PA-SEN (ATCC BAA 3107), evolved line 10, evolved vs ancestor): 2
MIC of evolved line (PA-SEN (ATCC BAA 3107), evolved line 2): 32 µg/mL
MIC of evolved line (PA-SEN (ATCC BAA 3107), evolved line 4): 16 µg/mL
MIC of evolved line (PA-SEN (ATCC BAA 3107), evolved line 5): 16 µg/mL
MIC of evolved line (PA-SEN (ATCC BAA 3107), evolved line 8): 8 µg/mL
MIC of evolved line (PA-SEN (ATCC BAA 3107), evolved line 9): 32 µg/mL
MIC of evolved line (PA-SEN (ATCC BAA 3107), evolved line 10): 2 µg/mL
MIC of evolved line (PA-SEN ATCC BAA 3107, evolved line 1): 16 µg/mL
Relative MIC (log10) (PA-SEN, Pseudomonas aeruginosa ATCC BAA 3107, evolved line 1): 1.204 log10
Relative MIC (log10) (PA-SEN, Pseudomonas aeruginosa ATCC BAA 3107, evolved line 2): 1.505 log10
Relative MIC (log10) (PA-SEN, Pseudomonas aeruginosa ATCC BAA 3107, evolved line 4): 1.204 log10
Relative MIC (log10) (PA-SEN, Pseudomonas aeruginosa ATCC BAA 3107, evolved line 5): 1.204 log10
Relative MIC (log10) (PA-SEN, Pseudomonas aeruginosa ATCC BAA 3107, evolved line 9): 1.505 log10
Relative MIC (Pseudomonas aeruginosa ATCC BAA 3107 (PA-SEN), evolved line 1): 16
Relative MIC (Pseudomonas aeruginosa ATCC BAA 3107 (PA-SEN), evolved line 2): 32
Relative MIC (Pseudomonas aeruginosa ATCC BAA 3107 (PA-SEN), evolved line 4): 16
Relative MIC (Pseudomonas aeruginosa ATCC BAA 3107 (PA-SEN), evolved line 5): 16
Relative MIC (Pseudomonas aeruginosa ATCC BAA 3107 (PA-SEN), evolved line 8): 8
Relative MIC (Pseudomonas aeruginosa ATCC BAA 3107 (PA-SEN), evolved line 9): 32
Relative MIC (Pseudomonas aeruginosa ATCC BAA 3107 (PA-SEN), evolved line 10): 2
Relative MIC (Pseudomonas aeruginosa LESB 58 (PA-MDR), evolved line 1): 16
Relative MIC (Pseudomonas aeruginosa LESB 58 (PA-MDR), evolved line 2): 16
Relative MIC (Pseudomonas aeruginosa LESB 58 (PA-MDR), evolved line 3): 16
Relative MIC (Pseudomonas aeruginosa LESB 58 (PA-MDR), evolved line 4): 8
Relative MIC (Pseudomonas aeruginosa LESB 58 (PA-MDR), evolved line 5): 16
Relative MIC (Pseudomonas aeruginosa LESB 58 (PA-MDR), evolved line 6): 32
Relative MIC (Pseudomonas aeruginosa LESB 58 (PA-MDR), evolved line 7): 16
Relative MIC (Pseudomonas aeruginosa LESB 58 (PA-MDR), evolved line 8): 4
Relative MIC (Pseudomonas aeruginosa LESB 58 (PA-MDR), evolved line 9): 16
Relative MIC (Pseudomonas aeruginosa LESB 58 (PA-MDR), evolved line 10): 32

POL7306
Relative MIC (ALE, Pseudomonas aeruginosa ATCC BAA 3107 (PA-SEN), evolved line 1): 2
Relative MIC (ALE, Pseudomonas aeruginosa ATCC BAA 3107 (PA-SEN), evolved line 2): 2
Relative MIC (ALE, Pseudomonas aeruginosa ATCC BAA 3107 (PA-SEN), evolved line 3): 2
Relative MIC (ALE, Pseudomonas aeruginosa ATCC BAA 3107 (PA-SEN), evolved line 4): 2
Relative MIC (ALE, Pseudomonas aeruginosa ATCC BAA 3107 (PA-SEN), evolved line 6): 2
Relative MIC (ALE, Pseudomonas aeruginosa ATCC BAA 3107 (PA-SEN), evolved line 8): 2

polymyxin-B
MIC of evolved line (PA-MDR (P. aeruginosa LESB 58), evolved line 4 of the given antibiotic): 4 µg/mL
MIC of evolved line (PA-MDR (P. aeruginosa LESB 58), evolved line 5 of the given antibiotic): 4 µg/mL
MIC of evolved line (PA-MDR (P. aeruginosa LESB 58), evolved line 7 of the given antibiotic): 32 µg/mL
MIC of evolved line (PA-MDR (P. aeruginosa LESB 58), evolved line 8 of the given antibiotic): 8 µg/mL
MIC of evolved line (PA-MDR (P. aeruginosa LESB 58), evolved line 10 of the given antibiotic): 16 µg/mL
MIC of evolved line (PA-MDR LESB 58, evolved line 1): 64 µg/mL
MIC of evolved line (PA-MDR LESB 58, evolved line 2): 256 µg/mL
MIC of evolved line (PA-MDR LESB 58, evolved line 3): 16 µg/mL
MIC of evolved line (PA-SEN (P. aeruginosa ATCC BAA 3107), evolved line 1 of the given antibiotic): 32 µg/mL
MIC of evolved line (PA-SEN (P. aeruginosa ATCC BAA 3107), evolved line 4 of the given antibiotic): 32 µg/mL
MIC of evolved line (PA-SEN (P. aeruginosa ATCC BAA 3107), evolved line 5 of the given antibiotic): 32 µg/mL
MIC of evolved line (PA-SEN (P. aeruginosa ATCC BAA 3107), evolved line 6 of the given antibiotic): 4 µg/mL
MIC of evolved line (PA-SEN (P. aeruginosa ATCC BAA 3107), evolved line 7 of the given antibiotic): 16 µg/mL
MIC of evolved line (PA-SEN (P. aeruginosa ATCC BAA 3107), evolved line 8 of the given antibiotic): 16 µg/mL
MIC of evolved line (PA-SEN (P. aeruginosa ATCC BAA 3107), evolved line 9 of the given antibiotic): 4 µg/mL
MIC of evolved line (PA-SEN (P. aeruginosa ATCC BAA 3107), evolved line 10 of the given antibiotic): 4 µg/mL
